Common to all, as to assay: Post-emergence/greenhouse herbicidal test
Common to all, as to type: in vivo

In one assay the test system is Abutilon theophrasti. Conditions: post-emergence, about 3 weeks. From the text: (§1) Procarbazone- and flucarbazone-sodium were used as 70 WG formulation. Fenoxaprop-P-ethyl was used in a mixture with mefenpyr-diethyl (75 g of mefenpyr-diethyl/l) as Ralon® Super 69 EW. Cinidon-ethyl and florasulam and iodosufuron in a mixture with mefenpyr-diethyl were used in the form of the finished formulations Lotus® 200 EC, Primus® 50 SC and Hussar® 5 WG (15% mefenpyr-diethyl), respectively. Amicarbazone was used as 70 WG formulation.
(§2) In pre- and post-emergence experiments, the spray liquor is usually admixed with a surfactant (Renex 36), at a concentration of 0.1%.
(§3) Test plants are grown under controlled conditions (temperature and light).
(§4) Following the spray application, the plant containers are kept in a greenhouse under constant light and temperature conditions.
(§5) After about 3 weeks, the degree of damage to the plants is rated in % damage in comparison to the development of the untreated control.
(§6) 0% =no damage (like untreated control)
(§7) 100% =total destruction/damage

Another assay concerns Avena fatua.
Text: as §1, §2, §3, §4, §5, §6, §7

In the next assay the test system is Cassia tora.
Text: as §1, §2, §3, §4, §5, §6, §7

For another assay, the system named is Eriochloa villosa. The conditions noted are these: post-emergence, about 3 weeks.
Text: as §1, §2, §3, §4, §5, §6, §7

A further assay deals with Matricaria inodora. Conditions: application rate 30 g ai/ha.
Text: as §1, §2, §3, §4, §5, §6, §7

In the next assay the test system is Stellaria media. The conditions noted are these: post-emergence, about 3 weeks.
Text: as §1, §2, §3, §4, §5, §6, §7

Another assay relates to Viola arvensis. The conditions noted are these: post-emergence, about 3 weeks.
Text: as §1, §2, §3, §4, §5, §6, §7

A further assay deals with Xanthium strumarium. Conditions: post-emergence, about 3 weeks.
Text: as §1, §2, §3, §4, §5, §6, §7

The next assay relates to Alopecurus myosuroides. Conditions: post-emergence, about 3 weeks.
Text: as §1, §2, §3, §4, §5, §6, §7

A further assay relates to Bromus secalinus.
Text: as §1, §2, §3, §4, §5, §6, §7

The test system of a further assay is Cyperus esculentus. Conditions: post-emergence, about 3 weeks.
Text: as §1, §2, §3, §4, §5, §6, §7

For a further assay, the system named is Echinochloa crus-galli.
Text: as §1, §2, §3, §4, §5, §6, §7

In the next assay the test system is Lolium perenne. The conditions noted are these: post-emergence, about 3 weeks.
Text: as §1, §2, §3, §4, §5, §6, §7

A further assay concerns Amaranthus retroflexus. The conditions noted are these: post-emergence, about 3 weeks.
Text: as §1, §2, §3, §4, §5, §6, §7

In the next assay the test system is Chenopodium album. Conditions: post-emergence, about 3 weeks.
Text: as §1, §2, §3, §4, §5, §6, §7

A further assay concerns Datura strumarium. Conditions: post-emergence, about 3 weeks.
Text: as §1, §2, §3, §4, §5, §6, §7

The next assay relates to Galium aparine. Conditions: post-emergence, about 3 weeks.
Text: as §1, §2, §3, §4, §5, §6, §7

The next assay concerns Ipomoea hederacea. Conditions: post-emergence, about 3 weeks.
Text: as §1, §2, §3, §4, §5, §6, §7

The subject of the next assay is Polygonum convolvolus.
Text: as §1, §2, §3, §4, §5, §6, §7

The next assay deals with Solanum nigrum. The conditions noted are these: post-emergence, about 3 weeks.
Text: as §1, §2, §3, §4, §5, §6, §7

The test system of a further assay is Setaria viridis.
Where [1] appears, read: 30 g of ai/ha, post-emergence, about 3 weeks.
[2] abbreviates: 8 g of ai/ha, post-emergence, about 3 weeks.
Where [3] appears, read: 15 g of ai/ha, post-emergence, about 3 weeks.
The mark [4] stands for this setting: 60 g of ai/ha, post-emergence, about 3 weeks.
Where [5] appears, read: 125 g of ai/ha, post-emergence, about 3 weeks.
Setting [6] is: application rate 2 g ai/ha, iodosulfuron tested as Hussar (iodosulfuron 5% & mefenpyr 15%).
The mark [7] stands for this setting: application rate 4 g ai/ha, iodosulfuron tested as Hussar (iodosulfuron 5% & mefenpyr 15%).
Where [8] appears, read: application rate 8 g ai/ha, iodosulfuron tested as Hussar (iodosulfuron 5% & mefenpyr 15%).

Where “and” joins values, the source holds several entries; their conditions need not be identical. Equal entries are not always repeated.

With `CC(C)c1nn(C(=O)NC(C)(C)C)c(=O)n1N` [Amicarbazone, 4-amino-N-(1,1-dimethyl-ethyl)-4,5-dihydro-3-(1-methyl-ethyl)-5-oxo-1H-1,2,4-triazole-1-carboxamide], the Abutilon theophrasti observed in the assay on Abutilon theophrasti (30 g of ai/ha) is on record as 80%. Also, the Avena fatua observed in the assay with Avena fatua (application rate 30 g ai/ha) is listed as 0. In the assay with Cassia tora (setting [1]), this compound yielded a Cassia tora observed of 40%. Moreover, in the assay on Eriochloa villosa (125 g of ai/ha), the Eriochloa villosa observed was determined as 70%. This compound yielded a Matricaria inodora observed in the assay on Matricaria inodora of 60. Besides, in the assay with Stellaria media (60 g of ai/ha), the Stellaria media observed is 80%. The compound further registered a Viola arvensis observed in the assay with Viola arvensis (30 g of ai/ha) of 70%. Also, the Xanthium strumarium observed in the assay with Xanthium strumarium (30 g of ai/ha) stood at 80%.

As for `CCOC(=O)C(Cl)=Cc1cc(N2C(=O)C3=C(CCCC3)C2=O)ccc1Cl` [Cinidon-ethyl, ethyl 2-chloro-3-[2-chloro-5-(1,3,4,5,6,7-hexahydro-1,3-dioxo-2H-isoindol-2-yl)-phenyl]-2-propanoate], the Alopecurus myosuroides observed with Alopecurus myosuroides (8 g of ai/ha) and in the assay on Alopecurus myosuroides (15 g of ai/ha) was 0% throughout. The Avena fatua observed in the assay with Avena fatua (setting [2]) is listed as 0%; with Avena fatua (setting [3]), 10%. Besides, the Bromus secalinus observed in the assay with Bromus secalinus (setting [2]) is listed as 0%; in the assay on Bromus secalinus (setting [3]) it was 20%. The compound also returned a Cassia tora observed with Cassia tora (setting [3]) of 95%. Also, the Cyperus esculentus observed in the assay with Cyperus esculentus (8 g of ai/ha) is listed as 0%; with Cyperus esculentus (15 g of ai/ha), 20%. For the same compound, the Echinochloa crus-galli observed with Echinochloa crus-galli (setting [2]) and with Echinochloa crus-galli (setting [3]) was 0% in each case. In the assay on Eriochloa villosa (15 g of ai/ha), the Eriochloa villosa observed came out at 30%. In the assay with Lolium perenne (8 g of ai/ha), this compound had a Lolium perenne observed of 0%. Further, the results for the Viola arvensis observed with Viola arvensis (8 g of ai/ha) and in the assay on Viola arvensis (15 g of ai/ha) were 0% and 30%, respectively.

As for `CCOC(=O)[C@@H](C)Oc1ccc(Oc2nc3ccc(Cl)cc3o2)cc1` [Fenoxaprop-P-ethyl, ethyl (R)-2-[4-(6-chloro-benzoxazol-2-yl-oxy)-phenoxy]-propanoate], the Alopecurus myosuroides observed in the assay on Alopecurus myosuroides (15 g of ai/ha) and in the assay with Alopecurus myosuroides (30 g of ai/ha) was 0% each time. Besides, the Amaranthus retroflexus observed with Amaranthus retroflexus (30 g of ai/ha) and in the assay on Amaranthus retroflexus (60 g of ai/ha) was 0% each time. For the same compound, the Bromus secalinus observed in the assay with Bromus secalinus (setting [1]) and in the assay on Bromus secalinus (setting [4]) was 0% throughout. Moreover, the Chenopodium album observed in the assay on Chenopodium album (30 g of ai/ha) and with Chenopodium album (60 g of ai/ha) was 0% in each case. The Datura strumarium observed with Datura strumarium (30 g of ai/ha) and in the assay with Datura strumarium (60 g of ai/ha) was 0% throughout. Further, the Galium aparine observed in the assay with Galium aparine (15 g of ai/ha), with Galium aparine (30 g of ai/ha) and in the assay on Galium aparine (60 g of ai/ha) was 0% each time. In addition, the Ipomoea hederacea observed with Ipomoea hederacea (30 g of ai/ha) and in the assay with Ipomoea hederacea (60 g of ai/ha) was 0% in each case. The Lolium perenne observed with Lolium perenne (30 g of ai/ha) and in the assay on Lolium perenne (60 g of ai/ha) was 0% in each case. Moreover, the Polygonum convolvolus observed with Polygonum convolvolus (setting [1]) and in the assay with Polygonum convolvolus (setting [4]) was 0% each time. Moreover, the Solanum nigrum observed in the assay on Solanum nigrum (15 g of ai/ha), in the assay with Solanum nigrum (30 g of ai/ha) and in the assay on Solanum nigrum (60 g of ai/ha) was 0% each time. Moreover, the Stellaria media observed in the assay on Stellaria media (30 g of ai/ha) and in the assay on Stellaria media (60 g of ai/ha) was 0% throughout. In addition, the Viola arvensis observed with Viola arvensis (15 g of ai/ha), in the assay with Viola arvensis (30 g of ai/ha) and with Viola arvensis (60 g of ai/ha) was 0% throughout. In addition, the Xanthium strumarium observed in the assay with Xanthium strumarium (30 g of ai/ha) and with Xanthium strumarium (60 g of ai/ha) was 0% throughout.

As for `CC(C)N(C(=O)COc1nnc(C(F)(F)F)s1)c1ccc(F)cc1` [Flufenacet, N-(4-fluorophenyl)-N-isopropyl-2-(5-trifluoromethyl-1,3,4-thiadiazol-2-yl-oxy)-acetamide], the Amaranthus retroflexus observed in the assay on Amaranthus retroflexus (60 g of ai/ha) and in the assay on Amaranthus retroflexus (125 g of ai/ha) was 0% in each case. The Avena fatua observed with Avena fatua (setting [5]) was 70%. Further, the Polygonum convolvolus observed in the assay on Polygonum convolvolus (setting [5]) came out at 0%.

Regarding `COC(=O)c1ccc(I)cc1S(=O)(=O)NC(=O)Nc1nc(C)nc(OC)n1.[Na]` [Iodosufuron, N-(4-methoxy-6-methyl-1,3,5-triazin-2-yl)-N′-(5-iodo-2-methoxycarbonyl-phenylsulphonyl)-urea sodium salt], the Avena fatua observed with Avena fatua (setting [2]) came to 70%; in the assay on Avena fatua (Table B-62, application rate 2 g ai/ha, iodosulfuron tested as Hussar (iodosulfuron 5% & mefenpyr 15%)) it was 10. Moreover, the Bromus secalinus observed in the assay with Bromus secalinus (setting [6]), with Bromus secalinus (setting [7]) and in the assay with Bromus secalinus (setting [8]) was 0 in each case. Further, the Cassia tora observed in the assay with Cassia tora (setting [8]) amounted to 80. The compound further had an Echinochloa crus-galli observed with Echinochloa crus-galli (setting [6]) of 20. Moreover, the Polygonum convolvolus observed with Polygonum convolvolus (setting [6]) turned out to be 80. The compound also showed a Setaria viridis observed with Setaria viridis (setting [7]) of 0.

For `CCCOc1nn(C(=O)NS(=O)(=O)c2ccccc2C(=O)OC)c(=O)n1C` [Procarbazone-sodium, 2-(2-methoxycarbonyl-phenylsulphonylaminocarbonyl)-4-methyl-5-n-propoxy-2,4-dihydro-3H-1,2,4-triazol-3-one], in the assay on Abutilon theophrasti (60 g of ai/ha), the Abutilon theophrasti observed amounted to 60%. Besides, the Alopecurus myosuroides observed in the assay with Alopecurus myosuroides (15 g of ai/ha) was 60% and 80%; in the assay with Alopecurus myosuroides (30 g of ai/ha), 70% and 80%; with Alopecurus myosuroides (60 g of ai/ha) it was 70% and 90%. The Amaranthus retroflexus observed with Amaranthus retroflexus (15 g of ai/ha) is 80% and 98%; in the assay with Amaranthus retroflexus (30 g of ai/ha), 90% and 98%; in the assay on Amaranthus retroflexus (60 g of ai/ha), 98%. Moreover, the Avena fatua observed in the assay on Avena fatua (setting [3]) is 70% and 50% and 80%; in the assay on Avena fatua (setting [1]) it was 90% and 50%; in the assay with Avena fatua (setting [4]), 60%. Moreover, the Bromus secalinus observed in the assay on Bromus secalinus (setting [3]) is 80% and 70%; in the assay on Bromus secalinus (setting [1]), 80%; with Bromus secalinus (setting [4]) it was 90%; in the assay on Bromus secalinus (application rate 15 g ai/ha), 90; in the assay on Bromus secalinus (application rate 30 g ai/ha), 90. For the same compound, the Cassia tora observed was 50% in the assay with Cassia tora (setting [3]); 30% and 50% in the assay with Cassia tora (setting [4]). The figures for the Cyperus esculentus observed in the assay on Cyperus esculentus (15 g of ai/ha) and with Cyperus esculentus (30 g of ai/ha) were 70% and 80%, respectively. Further, the Echinochloa crus-galli observed with Echinochloa crus-galli (setting [1]) and in the assay with Echinochloa crus-galli (setting [4]) was 90% throughout. In addition, the Eriochloa villosa observed in the assay with Eriochloa villosa (15 g of ai/ha) is reported as 0%. Further, the values for the Galium aparine observed with Galium aparine (15 g of ai/ha), in the assay with Galium aparine (30 g of ai/ha) and in the assay with Galium aparine (60 g of ai/ha) were 20%, 30% and 40%, respectively. For the same compound, the values for the Ipomoea hederacea observed in the assay with Ipomoea hederacea (15 g of ai/ha), in the assay on Ipomoea hederacea (30 g of ai/ha) and in the assay with Ipomoea hederacea (60 g of ai/ha) were 60%, 70% and 70%, respectively. The Lolium perenne observed with Lolium perenne (15 g of ai/ha) is 0%; with Lolium perenne (30 g of ai/ha) it was 30% and 20%; in the assay with Lolium perenne (60 g of ai/ha) it was 50%. In addition, the Polygonum convolvolus observed in the assay with Polygonum convolvolus (setting [1]) was 0%; in the assay on Polygonum convolvolus (setting [4]) it was 0%; in the assay with Polygonum convolvolus (application rate 15 g ai/ha), 0; in the assay with Polygonum convolvolus (application rate 30 g ai/ha), 0; in the assay on Polygonum convolvolus (application rate 60 g ai/ha) it was 0. The Solanum nigrum observed in the assay on Solanum nigrum (30 g of ai/ha) turned out to be 70%. Further, the Stellaria media observed with Stellaria media (15 g of ai/ha) is recorded as 50%; in the assay with Stellaria media (30 g of ai/ha), 60%; in the assay with Stellaria media (60 g of ai/ha) it was 70%. The Viola arvensis observed was 50% and 70% in the assay with Viola arvensis (30 g of ai/ha); 80% in the assay with Viola arvensis (60 g of ai/ha). Also, the Xanthium strumarium observed is 60% with Xanthium strumarium (15 g of ai/ha); 70% and 60% in the assay on Xanthium strumarium (30 g of ai/ha); 60% in the assay with Xanthium strumarium (60 g of ai/ha). The Setaria viridis observed amounted to 0 in the assay with Setaria viridis (application rate 15 g ai/ha), 0 in the assay on Setaria viridis (application rate 30 g ai/ha) and 20 in the assay with Setaria viridis (application rate 60 g ai/ha).
